Assay results published in patent US9145346B1, “Process for 2,2,4,4-tetramethylcyclobutane-1,3-diol crystallization” (Eastman Chemical Company, priority 2014, dated 2015).

Assay: Solubility (saturated concentration) of cis-TMCD and trans-TMCD in various solvents, by gas chromatography
Format: physicochemical
Description: All concentrations were measured by gas chromatography. Water concentration was measured by Karl Fischer titrations.
The solubility of cis-TMCD and trans-TMCD in various solvents was determined by charging cis-TMCD, trans-TMCD, and the solvent or solvents of interest into a 120 ml jacketed glass vessel. The vessel was equipped with a stir bar in order to provide mixing and the jacket was used to control the temperature of the vessel contents. The vessel was equipped with charging and sampling ports on top of the vessel.
The slurry was allowed to stand for a time sufficient for the solids to saturate the solvent at the desired temperature. At that time, a sample of the solution was withdrawn from the cell using a fritted pipette so as to remove only the liquid phase. The sample was analyzed for cis-TMCD and trans-TMCD isomer content. These values represent the saturated concentration of each isomer at the sampling temperature.
After this, the cell contents were heated to the next desired temperature and the contents were held for another time interval sufficient to allow the slurry to equilibrate. A sample was then taken of the solution and analyzed. Following this procedure, solubility data was collected up to the final desired temperature.
The reported solubility of each isomer at a given temperature for a given solvent is expressed as a weight % relative to the saturated concentration of the isomer at the highest temperature reported for a given solvent.

- Relative solubility (2-Ethylhexanol, 0.7° C., relative to 89.8° C.): 11% relative wt %
- Relative solubility (2-Ethylhexanol, 12.5° C., relative to 89.8° C.): 15% relative wt %
- Relative solubility (2-Ethylhexanol, 24.7° C., relative to 89.8° C.): 20% relative wt %
- Relative solubility (2-Ethylhexanol, 40.0° C., relative to 89.8° C.): 28% relative wt %
- Relative solubility (2-Ethylhexanol, 49.9° C., relative to 89.8° C.): 36% relative wt %
- Relative solubility (2-Ethylhexanol, 60.2° C., relative to 89.8° C.): 45% relative wt %
- Relative solubility (2-Ethylhexanol, 69.3° C., relative to 89.8° C.): 57% relative wt %
- Relative solubility (2-Ethylhexanol, 79.3° C., relative to 89.8° C.): 75% relative wt %
- Relative solubility (2-Ethylhexanol, 89.8° C., relative to 89.8° C.): 100% relative wt %
- Relative solubility (2-Ethylhexyl Acetate, 5.9° C., relative to 79.4° C.): 6% relative wt %
- Relative solubility (2-Ethylhexyl Acetate, 15.5° C., relative to 79.4° C.): 9% relative wt %
- Relative solubility (2-Ethylhexyl Acetate, 25.1° C., relative to 79.4° C.): 12% relative wt %
- Relative solubility (2-Ethylhexyl Acetate, 40.5° C., relative to 79.4° C.): 22% relative wt %
- Relative solubility (2-Ethylhexyl Acetate, 49.8° C., relative to 79.4° C.): 32% relative wt %
- Relative solubility (2-Ethylhexyl Acetate, 49.9° C., relative to 79.4° C.): 33% relative wt %
- Relative solubility (2-Ethylhexyl Acetate, 60.5° C., relative to 79.4° C.): 48% relative wt %
- Relative solubility (2-Ethylhexyl Acetate, 70.3° C., relative to 79.4° C.): 74% relative wt %
- Relative solubility (2-Ethylhexyl Acetate, 79.4° C., relative to 79.4° C.): 100% relative wt %
- Relative solubility (2-Ethylhexyl Acetate, −5.0° C., relative to 79.4° C.): 4% relative wt %
- Relative solubility (CHDM, 69.0° C., relative to 106.9° C.): 54% relative wt %
- Relative solubility (CHDM, 79.2° C., relative to 106.9° C.): 74% relative wt %
- Relative solubility (CHDM, 88.9° C., relative to 106.9° C.): 80% relative wt %
- Relative solubility (CHDM, 95.6° C., relative to 106.9° C.): 91% relative wt %
- Relative solubility (CHDM, 106.9° C., relative to 106.9° C.): 100% relative wt %
- Relative solubility (Dimethyl Carbonate, 6.2° C., relative to 70.1° C.): 7% relative wt %
- Relative solubility (Dimethyl Carbonate, 16.3° C., relative to 70.1° C.): 9% relative wt %
- Relative solubility (Dimethyl Carbonate, 25.7° C., relative to 70.1° C.): 14% relative wt %
- Relative solubility (Dimethyl Carbonate, 40.5° C., relative to 70.1° C.): 27% relative wt %
- Relative solubility (Dimethyl Carbonate, 54.7° C., relative to 70.1° C.): 54% relative wt %
- Relative solubility (Dimethyl Carbonate, 70.1° C., relative to 70.1° C.): 100% relative wt %
- Relative solubility (Ethanol, 5.3° C., relative to 60.3° C.): 51% relative wt %
- Relative solubility (Ethanol, 14.3° C., relative to 60.3° C.): 55% relative wt %
- Relative solubility (Ethanol, 25.5° C., relative to 60.3° C.): 76% relative wt %
- Relative solubility (Ethanol, 39.9° C., relative to 60.3° C.): 82% relative wt %
- Relative solubility (Ethanol, 50.1° C., relative to 60.3° C.): 92% relative wt %
- Relative solubility (Ethanol, 60.3° C., relative to 60.3° C.): 100% relative wt %
- Relative solubility (Ethyl Acetate, 4.2° C., relative to 54.9° C.): 16% relative wt %
- Relative solubility (Ethyl Acetate, 15.0° C., relative to 54.9° C.): 25% relative wt %
- Relative solubility (Ethyl Acetate, 26.2° C., relative to 54.9° C.): 38% relative wt %
- Relative solubility (Ethyl Acetate, 40.5° C., relative to 54.9° C.): 62% relative wt %
- Relative solubility (Ethyl Acetate, 54.9° C., relative to 54.9° C.): 100% relative wt %
- Relative solubility (Ethyl Acetate, −5.1° C., relative to 54.9° C.): 12% relative wt %
- Relative solubility (Ethylene Glycol, 26.5° C., relative to 91.4° C.): 24% relative wt %
- Relative solubility (Ethylene Glycol, 36.2° C., relative to 91.4° C.): 32% relative wt %
- Relative solubility (Ethylene Glycol, 48.5° C., relative to 91.4° C.): 44% relative wt %
- Relative solubility (Ethylene Glycol, 61.5° C., relative to 91.4° C.): 61% relative wt %
- Relative solubility (Ethylene Glycol, 72.1° C., relative to 91.4° C.): 68% relative wt %
- Relative solubility (Ethylene Glycol, 82.2° C., relative to 91.4° C.): 82% relative wt %
- Relative solubility (Methanol, 16.9° C., relative to 41.3° C.): 82% relative wt %
- Relative solubility (Methanol, 25.6° C., relative to 41.3° C.): 89% relative wt %
- Relative solubility (Methanol, 41.3° C., relative to 41.3° C.): 100% relative wt %
- Relative solubility (Methanol, −2.5° C., relative to 41.3° C.): 70% relative wt %
- Relative solubility (Methyl Acetate, 5.9° C., relative to 49.8° C.): 14% relative wt %
- Relative solubility (Methyl Acetate, 15.5° C., relative to 49.8° C.): 22% relative wt %
- Relative solubility (Methyl Acetate, 25.1° C., relative to 49.8° C.): 33% relative wt %
- Relative solubility (Methyl Acetate, 40.5° C., relative to 49.8° C.): 59% relative wt %
- Relative solubility (Methyl Acetate, 49.8° C., relative to 49.8° C.): 100% relative wt %
- Relative solubility (Methyl Acetate, −5.0° C., relative to 49.8° C.): 9% relative wt %
- Relative solubility (Methyl i-Butyl Carbinol, 9.4° C., relative to 81.9° C.): 18% relative wt %
- Relative solubility (Methyl i-Butyl Carbinol, 20.4° C., relative to 81.9° C.): 23% relative wt %
- Relative solubility (Methyl i-Butyl Carbinol, 31.1° C., relative to 81.9° C.): 29% relative wt %
- Relative solubility (Methyl i-Butyl Carbinol, 40.0° C., relative to 81.9° C.): 39% relative wt %
- Relative solubility (Methyl i-Butyl Carbinol, 49.5° C., relative to 81.9° C.): 47% relative wt %
- Relative solubility (Methyl i-Butyl Carbinol, 60.0° C., relative to 81.9° C.): 60% relative wt %
- Relative solubility (Methyl i-Butyl Carbinol, 69.5° C., relative to 81.9° C.): 77% relative wt %
- Relative solubility (Methyl i-Butyl Carbinol, 81.9° C., relative to 81.9° C.): 100% relative wt %
- Relative solubility (i-Butyl Acetate, 4.8° C., relative to 90.1° C.): 6% relative wt %
- Relative solubility (i-Butyl Acetate, 16.9° C., relative to 90.1° C.): 9% relative wt %
- Relative solubility (i-Butyl Acetate, 25.6° C., relative to 90.1° C.): 12% relative wt %
- Relative solubility (i-Butyl Acetate, 41.3° C., relative to 90.1° C.): 21% relative wt %
- Relative solubility (i-Butyl Acetate, 56.2° C., relative to 90.1° C.): 36% relative wt %
- Relative solubility (i-Butyl Acetate, 70.2° C., relative to 90.1° C.): 58% relative wt %
- Relative solubility (i-Butyl Acetate, 90.1° C., relative to 90.1° C.): 100% relative wt %
- Relative solubility (i-Butyl Acetate, −2.5° C., relative to 90.1° C.): 5% relative wt %
- Relative solubility (n-Butanol, 5.9° C., relative to 60.5° C.): 44% relative wt %
- Relative solubility (n-Butanol, 15.5° C., relative to 60.5° C.): 49% relative wt %
- Relative solubility (n-Butanol, 25.1° C., relative to 60.5° C.): 58% relative wt %
- Relative solubility (n-Butanol, 40.5° C., relative to 60.5° C.): 72% relative wt %
- Relative solubility (n-Butanol, 49.8° C., relative to 60.5° C.): 86% relative wt %
- Relative solubility (n-Butanol, 49.9° C., relative to 60.5° C.): 86% relative wt %
- Relative solubility (n-Butanol, 60.5° C., relative to 60.5° C.): 100% relative wt %
- Relative solubility (n-Butanol, −5.0° C., relative to 60.5° C.): 39% relative wt %
- Relative solubility (n-Butyl Propionate, 6.5° C., relative to 91.9° C.): 5% relative wt %
- Relative solubility (n-Butyl Propionate, 16.8° C., relative to 91.9° C.): 8% relative wt %
- Relative solubility (n-Butyl Propionate, 27.7° C., relative to 91.9° C.): 13% relative wt %
- Relative solubility (n-Butyl Propionate, 41.7° C. (sample 4), relative to 91.9° C.): 16% relative wt %
- Relative solubility (n-Butyl Propionate, 41.7° C. (sample 5), relative to 91.9° C.): 22% relative wt %
- Relative solubility (n-Butyl Propionate, 52.0° C., relative to 91.9° C.): 32% relative wt %
- Relative solubility (n-Butyl Propionate, 61.5° C., relative to 91.9° C.): 44% relative wt %
- Relative solubility (n-Butyl Propionate, 69.1° C., relative to 91.9° C.): 59% relative wt %
- Relative solubility (n-Butyl Propionate, 80.7° C., relative to 91.9° C.): 78% relative wt %
- Relative solubility (n-Butyl Propionate, 91.9° C., relative to 91.9° C.): 100% relative wt %
- Relative solubility (n-Propyl Propionate, 7.0° C., relative to 72.2° C.): 11% relative wt %
- Relative solubility (n-Propyl Propionate, 17.1° C., relative to 72.2° C.): 15% relative wt %
- Relative solubility (n-Propyl Propionate, 26.7° C., relative to 72.2° C.): 22% relative wt %
- Relative solubility (n-Propyl Propionate, 37.4° C., relative to 72.2° C.): 29% relative wt %
- Relative solubility (n-Propyl Propionate, 42.4° C., relative to 72.2° C.): 37% relative wt %
- Relative solubility (n-Propyl Propionate, 52.2° C., relative to 72.2° C.): 53% relative wt %
- Relative solubility (n-Propyl Propionate, 62.9° C., relative to 72.2° C.): 76% relative wt %
- Relative solubility (n-Propyl Propionate, 72.2° C., relative to 72.2° C.): 100% relative wt %
Compound: CC1(C)[C@H](O)C(C)(C)[C@H]1O [trans-TMCD, trans-2,2,4,4-tetramethylcyclobutane-1,3-diol]
